The source of these data is patent US10975068B2, “6-aminopyridin-3-yl thiazoles as modulators of RORγT” (Janssen Pharmaceutica NV, priority 2016, dated 2021).

Like-named read-outs stand apart in the source and are kept apart here.

In experiment [1] the target is human RORγt ligand binding domain (RORγt LBD) (Homo sapiens (Human), UniProt P51449). Nature of the experiment: RORγt ThermoFluor® assay (thermal shift binding). Summed up: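 Binding was inferred from thermal stabilisation (ΔTm) of the E. coli-expressed RORγt LBD (0.065 mg/mL), monitored by 1,8-ANS (60 μM) emission at 500 nm during a 1 °C/min ramp. Buffer was Hepes 100 mM pH 7.0 with NaCl, GSH and Tween-20.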

Another experiment has as its target full-length human RORγt (Homo sapiens (Human), UniProt P51449). The experiment in a line: RORγt (full-length human) reporter assay, Conditions B or C. The format is cell-based. The conditions noted are these: for RORγt (FL) Reporter Assay B or C, % inhibition (value marked *): marked *: footnote not given; for inhibition at 3 µM: at 3 μM compound concentration, read-out: RORγt (FL) Reporter Assay B or C, % inhibition; for inhibition at 6 µM: read-out: RORγt (FL) Reporter Assay B or C, % inhibition @ 6 μM, Conditions B or C; for RORγt (FL) Reporter Assay B or C, % inhibition (value marked ***): marked ***: footnote not given. Summed up: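 Readout is dual luciferase: firefly (GAL4-driven) normalized to DMSO-only and saturating-reference controls, then to CMV-Renilla. Full-length human RORγt fused to GAL4-DBD was transiently expressed in HEK293T; compound exposure ran overnight (16-20 h) starting 4-6 h after transfection, final FBS 1.3%, DMSO 0.1%.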

The mark [2] stands for this setting: read-out: ThermoFluor® Assay, Kd.
Where [3] appears, read: Conditions B or C, read-out: RORγt (FL) Reporter Assay B or C, IC50.
Where [4] appears, read: read-out: RORγt (FL) Reporter Assay B or C, IC50.

Chain of full-length human RORγt (P51449 other isoform, or with tags, fused parts or gaps): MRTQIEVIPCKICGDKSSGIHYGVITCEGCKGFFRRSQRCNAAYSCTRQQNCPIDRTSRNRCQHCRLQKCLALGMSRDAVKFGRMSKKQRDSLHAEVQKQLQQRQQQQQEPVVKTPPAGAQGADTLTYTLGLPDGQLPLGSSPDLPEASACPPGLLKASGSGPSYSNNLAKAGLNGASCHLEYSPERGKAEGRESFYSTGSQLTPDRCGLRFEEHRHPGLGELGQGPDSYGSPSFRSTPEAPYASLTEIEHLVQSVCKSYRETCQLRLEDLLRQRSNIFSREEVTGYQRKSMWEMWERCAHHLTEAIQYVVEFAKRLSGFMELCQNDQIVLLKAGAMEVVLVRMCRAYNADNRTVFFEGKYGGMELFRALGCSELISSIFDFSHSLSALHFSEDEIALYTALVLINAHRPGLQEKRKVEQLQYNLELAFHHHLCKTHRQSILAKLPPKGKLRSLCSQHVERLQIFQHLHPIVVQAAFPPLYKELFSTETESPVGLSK
Chain of human RORγt ligand binding domain (RORγt LBD) (P51449 other isoform, or with tags, fused parts or gaps): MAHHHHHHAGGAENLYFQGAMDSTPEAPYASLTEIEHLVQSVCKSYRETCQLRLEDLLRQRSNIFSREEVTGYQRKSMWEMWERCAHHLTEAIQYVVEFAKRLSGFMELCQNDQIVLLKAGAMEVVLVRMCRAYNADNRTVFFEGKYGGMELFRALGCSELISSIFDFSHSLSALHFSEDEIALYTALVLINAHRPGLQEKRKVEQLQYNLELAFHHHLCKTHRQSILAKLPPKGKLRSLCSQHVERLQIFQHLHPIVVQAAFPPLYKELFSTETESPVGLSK

Turning to `C[C@H](O)[C@H](C)NC(=O)c1nc(C(=O)N2CCC[C@@H]2C)c(-c2cnc(NC(C)(C)C)cc2C(F)(F)F)s1` (relative stereo) [Example 236, 5-(6-(tert-Butylamino)-4-(trifluoromethyl)pyridin-3-yl)-N-((2S*,3S*)-3-hydroxybutan-2-yl)-4-((S)-2-methylpyrrolidine-1-carbonyl)thiazole-2-carboxamide], in experiment [1] (setting [2]), the Kd came to 0.0016 µM. The “RORγt (FL) Reporter Assay B or C, % inhibition (value marked *)” value (“RORγt … % inhibition (value marked *)” below) on full-length human RORγt (Conditions B or C) was 122* %. The IC50 at full-length human RORγt (setting [3]) came out at 0.047 µM.
`C[C@H]1CCCN1C(=O)c1nc(C(=O)N[C@@H]2COC[C@H]2O)sc1-c1cnc(NC(C)(C)C)cc1C(F)F` [Example 402, 5-[6-(tert-Butylamino)-4-(difluoromethyl)-3-pyridyl]-N-[(3R,4S)-4-hydroxytetrahydrofuran-3-yl]-4-[(2S)-2-methylpyrrolidine-1-carbonyl]thiazole-2-carboxamide]: the Kd in experiment [1] (setting [2]) worked out at 0.0058 µM. Also, the inhibition at 3 µM at full-length human RORγt is 99%. For the same compound, the IC50 on full-length human RORγt (setting [4]) was determined as 0.037 µM.
Turning to `C[C@H](Nc1cc(C(F)F)c(-c2sc(C(=O)NC3CCC3O)nc2C(=O)N2C3CCC2CC3)cn1)C(F)(F)F` (stereo partly drawn) [Example 290, 4-((1s,4s)-7-Azabicyclo[2.2.1]heptane-7-carbonyl)-5-(4-(difluoromethyl)-6-(((S)-1,1,1-trifluoropropan-2-yl)amino)pyridin-3-yl)-N-(-trans-2-hydroxycyclobutyl)thiazole-2-carboxamide], in experiment [1] (setting [2]), the Kd amounted to 0.0063 µM. The inhibition at 3 µM at full-length human RORγt was 103%. In addition, at full-length human RORγt (setting [4]), the IC50 was 0.0065 µM.
In the case of `C[C@H]1CCCN1C(=O)c1nc(C(=O)N[C@@H]2CCOC2)sc1-c1cnc(NC(C)(C)C)cc1C(F)(F)F` [Example 373, 5-[6-(tert-Butylamino)-4-(trifluoromethyl)-3-pyridyl]-4-[(2S)-2-methylpyrrolidine-1-carbonyl]-N-[(3R)-tetrahydrofuran-3-yl]thiazole-2-carboxamide], in experiment [1] (setting [2]), the Kd turned out to be 0.0019 µM. Also, the inhibition at 3 µM at full-length human RORγt turned out to be 122%. In addition, the IC50 at full-length human RORγt (setting [4]) is 0.0046 µM.
In the case of `CC(Nc1cc(C(F)(F)F)c(-c2sc(C(=O)NCC(C)(C)O)nc2C(=O)N2CCCC[C@@H]2C)cn1)C(F)(F)F` (stereo partly drawn) [Example 33, N-(2-Hydroxy-2-methylpropyl)-4-((S)-2-methylpiperidine-1-carbonyl)-5-(4-(trifluoromethyl)-6-((1,1,1-trifluoropropan-2-yl)amino)pyridin-3-yl)thiazole-2-carboxamide], the Kd in experiment [1] (setting [2]) is 0.00043 µM. The IC50 on full-length human RORγt (setting [3]) was found to be 0.0052 µM. In addition, at full-length human RORγt, the inhibition at 6 µM stood at 109%.
For `C[C@H](Nc1cc(C(F)F)c(-c2sc(C(=O)N[C@@H]3CC[C@@H](O)C3)nc2C(=O)N2CC(F)(F)C[C@@H]2C)cn1)C(F)(F)F` [Example 410, 4-[(2S)-4,4-Difluoro-2-methyl-pyrrolidine-1-carbonyl]-5-[4-(difluoromethyl)-6-[[(1S)-2,2,2-trifluoro-1-methyl-ethyl]amino]-3-pyridyl]-N-[(1R,3R)-3-hydroxycyclopentyl]thiazole-2-carboxamide], the Kd in experiment [1] (setting [2]) was determined as 0.0011 µM. On full-length human RORγt, the inhibition at 3 µM turned out to be 97%. Moreover, the IC50 on full-length human RORγt (setting [4]) is 0.018 µM.
`C[C@H]1CCCCN1C(=O)c1nc(C(=O)NCC(C)(C)O)sc1-c1cnc(N[C@H]2CCCCC2(F)F)cc1C(F)(F)F` (relative stereo) [Example 32, 5-(6-(((S*)-2,2-Difluorocyclohexyl)amino)-4-(trifluoromethyl)pyridin-3-yl)-N-(2-hydroxy-2-methylpropyl)-4-((S)-2-methylpiperidine-1-carbonyl)thiazole-2-carboxamide]: the Kd in experiment [1] (setting [2]) worked out at 0.00026 µM. Also, at full-length human RORγt (setting [3]), the IC50 stood at 0.0022 µM. In addition, the inhibition at 6 µM at full-length human RORγt was 109%.
As for `CC1(Nc2cc(C(F)F)c(-c3sc(C(=O)NC4CCS(=O)(=O)CC4)nc3C(=O)N3C4CCC3CC4)cn2)CCC1` [Example 331, 4-((1s,4s)-7-Azabicyclo[2.2.1]heptane-7-carbonyl)-5-(4-(difluoromethyl)-6-((1-methylcyclobutyl)amino)pyridin-3-yl)-N-(1,1-dioxidotetrahydro-2H-thiopyran-4-yl)thiazole-2-carboxamide], the Kd in experiment [1] (setting [2]) came out at 0.0015 µM. The inhibition at 3 µM at full-length human RORγt turned out to be 81%. Further, the IC50 on full-length human RORγt (setting [4]) is 0.023 µM.
Turning to `C[C@H]1CCCN1C(=O)c1nc(C(=O)NCC(C)(C)O)sc1-c1cnc(N[C@H](C)C(C)(C)C)cc1C(F)F` [Example 298, 5-(4-(Difluoromethyl)-6-(((R)-3,3-dimethylbutan-2-yl)amino)pyridin-3-yl)-N-(2-hydroxy-2-methylpropyl)-4-((S)-2-methylpyrrolidine-1-carbonyl)thiazole-2-carboxamide], in experiment [1] (setting [2]), the Kd was determined as 0.0034 µM. For the same compound, the inhibition at 3 µM at full-length human RORγt was determined as 99%. For the same compound, the IC50 on full-length human RORγt (setting [4]) stood at 0.0077 µM.
Consider `C[C@H]1CCCN1C(=O)c1nc(C(=O)NCC(C)(C)O)sc1-c1cnc(NC2(C(F)(F)F)CC2)cc1C(F)(F)F` [Example 147, (S)—N-(2-Hydroxy-2-methylpropyl)-4-(2-methylpyrrolidine-1-carbonyl)-5-(4-(trifluoromethyl)-6-((1-(trifluoromethyl)cyclopropyl)amino)pyridin-3-yl)thiazole-2-carboxamide], for which the Kd in experiment [1] (setting [2]) came out at 0.0094 µM. The “RORγt (FL) Reporter Assay B or C, % inhibition (value marked ***)” value on full-length human RORγt (Conditions B or C) was 94*** %. Moreover, the IC50 on full-length human RORγt (setting [3]) came to 0.12 µM.
Turning to `C[C@H](Nc1cc(C(F)(F)F)c(-c2sc(C(=O)N[C@@H]3COC[C@@H]3O)nc2C(=O)N2C3CCC2CC3)cn1)C(F)(F)F` (single isomer, unassigned) [Example 228, 4-((1s,4s)-7-Azabicyclo[2.2.1]heptane-7-carbonyl)-N-((3R*,4R*)-4-hydroxytetrahydrofuran-3-yl)-5-(4-(trifluoromethyl)-6-(((S)-1,1,1-trifluoropropan-2-yl)amino)pyridin-3-yl)thiazole-2-carboxamide], the Kd in experiment [1] (ThermoFluor® Assay, Kd (μM)) came to 0.0023 µM. Moreover, the “RORγt (FL) Reporter Assay B or C, % inhibition (value marked ***)” value on full-length human RORγt (Conditions B or C) is 91*** %. Further, the 50% inhibitory concentration (IC50) against full-length human RORγt (RORγt (FL) Reporter Assay B or C, IC50 (μM), Conditions B or C) was determined as 0.095 µM.
Turning to `CC[C@H](Nc1cc(C(F)F)c(-c2sc(C(=O)N[C@H](C)CO)nc2C(=O)N2CCC[C@@H]2C)cn1)C(F)(F)F` [Example 234, 5-[4-(Difluoromethyl)-6-[[(1S)-1-(trifluoromethyl)propyl]amino]-3-pyridyl]-N-[(1R)-2-hydroxy-1-methyl-ethyl]-4-[(2S)-2-methylpyrrolidine-1-carbonyl]thiazole-2-carboxamide], in experiment [1] (setting [2]), the Kd worked out at 0.0052 µM. The “RORγt … % inhibition (value marked *)” value on full-length human RORγt (Conditions B or C) was 116* %. Further, the IC50 at full-length human RORγt (setting [3]) came to 0.042 µM.
On to `C[C@H]1CCCN1C(=O)c1nc(C(=O)NCC2(O)COC2)sc1-c1cnc(NC2CCCC2)cc1C(F)F` [Example 73, (S)-5-(6-(Cyclopentylamino)-4-(difluoromethyl)pyridin-3-yl)-N-((3-hydroxyoxetan-3-yl)methyl)-4-(2-methylpyrrolidine-1-carbonyl)thiazole-2-carboxamide], for which the Kd in experiment [1] (setting [2]) was determined as 0.011 µM. Also, on full-length human RORγt (Conditions B or C), the “RORγt … % inhibition (value marked *)” value is on record as 104* %. Further, the IC50 on full-length human RORγt (setting [3]) is 0.074 µM.
For the compound `C[C@H](Nc1cc(C(F)F)c(-c2sc(C(=O)N[C@H]3C[C@@H]3O)nc2C(=O)N2CCC[C@@H]2C)cn1)C(F)(F)F` (single isomer, unassigned) [Example 158, 5-(4-(Difluoromethyl)-6-(((S)-1,1,1-trifluoropropan-2-yl)amino)pyridin-3-yl)-N-((1S*,2S*)-2-hydroxycyclopropyl)-4-((S)-2-methylpyrrolidine-1-carbonyl)thiazole-2-carboxamide], the Kd in experiment [1] (setting [2]) stood at 0.017 µM. Also, the “RORγt … % inhibition (value marked *)” value at full-length human RORγt (Conditions B or C) was 96* %. Further, the IC50 on full-length human RORγt (setting [3]) was determined as 0.31 µM.
